Experimental data: patent publication US6838580B2, “Opioid derivative” (Teikoku Seiyaku Co., Ltd., priority 2002, dated 2005)
“Also recorded” adds a separate entry of the source. Marks after values point to notes of the source that are not given here.

What was measured:
SD Male rats [1] = assay: Analgesic effect, Randoll-Seritto hind limb pressure method, intravenous administration; type: in vivo; details: rat, i.v.
Procedure: (§1) SD Male rats, weighing 110 to 130 g, were used. One group consisted of five rats. The analgesic effects were examined by a Randoll-Seritto method. […] The threshold was expressed in mm Hg. During the measurement, the upper limit of the pressure applied to a hind limb was 100 mm Hg in order to avoid damage of the tissues.
(§2) 2) When administered intravenously (i.v.), a volume of 2 ml/kg weight was administered to a tail vein and, when administered subcutaneously (s.c.), a volume of 2 ml/kg weight was subcutaneously administered to the back. In the case of intravenous administration, a 1 mg/kg, 3 mg/kg or 10 mg/kg compound of Ex.1 administration group, a 1 mg/kg, 3 mg/kg or 10 mg/kg compound of Ex.4 administration group, a 2 ml/kg physiological saline administration group and a 5 mg/kg morphine hydrochloride administration group were made, respectively. In the case of subcutaneous administration, a 10 mg/kg, 30 mg/kg or 100 mg/kg compound of Ex.1 administration group, a 10 mg/kg, 30 mg/kg or 100 mg/kg compound of Ex.4 administration group, a 2 ml/kg physiological saline administration group and a 5 mg/kg morphine hydrochloride administration group were made, respectively. Observation of the analgesic action was performed 15 minutes, 30 minutes, 1 hour and 2 hours after administration in the case of intravenous administration, 30 minutes, 1 hour, 2 hours and 3 hours after administration in the case of subcutaneous administration, respectively.
(§3) In order to perform a significant difference test between respective administration groups and control groups, and between values at respective times before administration and after administration, a Dunnet multiple comparative test method was used. In the statistical processing for performing a significant difference test between morphine hydrochloride administration groups and control groups, Student t-test was used. For performing a significant difference test between values at respective times before administration and after administration in morphine hydrochloride administration groups, a Dunnet multiple comparative test method was used. A significant level was at 5 or lower % risk rate (two-tailed test).

SD Male rats [2] = assay: Analgesic effect, Randoll-Seritto hind limb pressure method, subcutaneous administration; type: in vivo; details: rat, s.c.
Procedure: as §1, §2, §3

μ-opioid receptor = molecular target: T1, μ-opioid receptor (Rattus norvegicus, UniProt P33535); assay: Competitive receptor binding assay, synaptic membrane fraction, [3H]DAGO; details: for Ki: rat brain synaptic membrane, [3H]DAGO, read-out: Affinity of receptor (Ki, nM) μ; for Selectivity δ/μ: ratio Ki δ / Ki μ
T1 construct: synaptic membrane fraction obtained from the rat brain tissue; from tissue; host or cells: Sprague-Dawley rat brain without cerebellum, synaptic membrane (P2) fraction
Procedure: Regarding the opioid peptide derivatives synthesized in Examples and Reference Examples, the μ- and δ-opioid receptor affinities were obtained by a competitive receptor assay using the synaptic membrane fraction obtained from the rat brain tissue according to the known methods. That is, Sprague-Dawley rats having an average weight of 150-180 g were killed by decapitation, the brain tissue from which cerebellum had been removed was homogenized in 0.32M sucrose and 1 mM HEPES (pH 7.5) containing 50 μg/ml soybean trypsin inhibitor, fractionated and centrifuged to obtain the synaptic membrane fraction (P2 fraction), which was pre-incubated in 50 mM HEPES (pH 7.5) containing 100 mM NaCl, 0.1 mM GDP and soybean trypsin inhibitor to remove endogenous ligands from the P2 fraction.
A competitive receptor binding assay (Radiolabeled receptor assay: RRA) based on an exchange reaction between a radioactive ligand for the synaptic membrane fraction and a peptide derivative to be tested was performed by using tritium-labeled [^3H]DAGO which is a μ-opioid receptor agonist and tritium-labeled [^3H]DPDPE which has the high δ-opioid receptor selectivity, and incubating an aliquot of the synaptic membrane with the peptide derivative to be tested for a period of time. Upon this, an exchange reaction between a ligand was performed under constant conditions, the radiation remaining in the synaptic membrane fraction was measured, and an amount of the ligand adsorbed onto the synaptic membrane fraction is calculated. By assuming that binding with a receptor occurs in competition between a radioactive ligand and an end ligand, the concentration (IC50) at which the maximum specific binding of the radioactive ligand is 50% inhibited was obtained, from which the affinity constant (Ki) was calculated by a method of Cheng et al. (Biochem. Pharmcol., 22, 3099(1973)).

δ-opioid receptor = molecular target: T2, δ-opioid receptor (Mus musculus, UniProt P32300); assay: Mouse seminiferous tract (MVD) assay, inhibition of electrically stimulated constriction; type: cell-based; details: agonist activity, read-out: MVD (IC50 ± S.E.)
T2 construct: using mouse seminiferous tract in place of guinea pig ileum; from tissue; host or cells: mouse seminiferous tract (vas deferens, MVD), organ bath

[3] = 10 mg/kg, before administration
[4] = 30 mg/kg, before administration
[5] = 100 mg/kg, before administration

T1 sequence (P33535 whole entry): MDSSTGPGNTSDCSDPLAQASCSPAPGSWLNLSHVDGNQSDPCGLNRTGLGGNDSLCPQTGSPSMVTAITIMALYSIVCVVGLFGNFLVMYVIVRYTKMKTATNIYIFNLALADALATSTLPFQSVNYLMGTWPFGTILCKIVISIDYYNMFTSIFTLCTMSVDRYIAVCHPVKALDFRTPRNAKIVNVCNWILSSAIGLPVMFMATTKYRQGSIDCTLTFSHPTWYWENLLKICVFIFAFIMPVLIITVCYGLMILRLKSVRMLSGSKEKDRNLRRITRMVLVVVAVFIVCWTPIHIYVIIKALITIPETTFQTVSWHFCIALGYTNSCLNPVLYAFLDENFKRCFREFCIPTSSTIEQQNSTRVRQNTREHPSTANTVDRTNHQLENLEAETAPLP
T2 sequence (P32300 whole entry): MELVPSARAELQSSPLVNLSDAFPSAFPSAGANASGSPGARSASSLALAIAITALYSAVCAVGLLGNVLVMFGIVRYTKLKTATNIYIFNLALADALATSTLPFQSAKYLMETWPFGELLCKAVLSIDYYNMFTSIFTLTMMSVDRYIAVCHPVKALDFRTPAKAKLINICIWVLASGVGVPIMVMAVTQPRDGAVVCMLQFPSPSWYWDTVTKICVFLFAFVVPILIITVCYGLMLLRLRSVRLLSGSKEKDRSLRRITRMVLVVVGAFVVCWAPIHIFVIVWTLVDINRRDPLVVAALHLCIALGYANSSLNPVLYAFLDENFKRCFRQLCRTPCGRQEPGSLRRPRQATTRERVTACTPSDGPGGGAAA

Row | Compound | Threshold (mmHg) (SD Male rats [1]; 3 mg/kg, 0.25 hr) | Threshold (mmHg) (SD Male rats [1]; 3 mg/kg, 0.5 hr) | Threshold (mmHg) (SD Male rats [1]; 3 mg/kg, 1 hr) | Threshold (mmHg) (SD Male rats [1]; 3 mg/kg, 2 hr) | Threshold (mmHg) (SD Male rats [1]; 3 mg/kg, before administration) | Threshold (mmHg) (SD Male rats [1]; 10 mg/kg, 0.25 hr) | Threshold (mmHg) (SD Male rats [1]; 10 mg/kg, 0.5 hr) | Threshold (mmHg) (SD Male rats [1]; 10 mg/kg, 1 hr) | Threshold (mmHg) (SD Male rats [1]; 10 mg/kg, 2 hr) | Threshold (mmHg) (SD Male rats [1]; [3]) | Change in escape reaction threshold / analgesic effect, in words (SD Male rats [2]; 10 mg/kg) | Threshold (mmHg) (SD Male rats [2]; 10 mg/kg, 0.5 hr) | Threshold (mmHg) (SD Male rats [2]; 10 mg/kg, 1 hr) | Threshold (mmHg) (SD Male rats [2]; 10 mg/kg, 2 hr) | Threshold (mmHg) (SD Male rats [2]; 10 mg/kg, 3 hr) | Threshold (mmHg) (SD Male rats [2]; [3]) | Change in escape reaction threshold / analgesic effect, in words (SD Male rats [2]; 30 mg/kg) | Threshold (mmHg) (SD Male rats [2]; 30 mg/kg, 0.5 hr) | Threshold (mmHg) (SD Male rats [2]; 30 mg/kg, 1 hr) | Threshold (mmHg) (SD Male rats [2]; 30 mg/kg, 2 hr) | also measured
1 | Cc1cc(O)cc(C)c1C[C@H](N)C(=O)NCCCCNC(=O)[C@@H](N)Cc1c(C)cc(O)cc1C.Cl.Cl [Ex.1, 1,4-Bis-(Dmt-amino)butane.2HCl] | 55 ± 2 mmHg | 56 ± 3 mmHg | 52 ± 4 mmHg | 49 ± 2 mmHg | 48 ± 2 mmHg | 60 ± 2**^,$$ mmHg | 56 ± 3 mmHg | 54 ± 2 mmHg | 53 ± 2 mmHg | 48 ± 2 mmHg | tendency of an increase in the threshold was seen; also recorded: exhibited the significant analgesic effect as compared with control groups | 55 ± 5 mmHg | 62 ± 6 mmHg | 58 ± 3 mmHg | 57 ± 2 mmHg | 47 ± 2 mmHg | significant increase in the threshold was seen 1 hour and 2 hours after administration | 52 ± 4 mmHg | 65 ± 5^$$ mmHg | 68 ± 3**^,$$ mmHg | Threshold (mmHg) (SD Male rats [1]; 1 mg/kg, before administration): 48 ± 2 mmHg; Change in escape reaction threshold / analgesic effect, in words (SD Male rats [1]; 10 mg/kg): significant increase in the threshold was seen 15 minutes after administration; also recorded: exhibited an analgesic effect but is weaker as compared with the case of morphine 10 mg/kg administration and its duration time was shorter; Threshold (mmHg) (SD Male rats [2]; 30 mg/kg, 3 hr): 59 ± 4 mmHg; Threshold (mmHg) (SD Male rats [2]; [4]): 47 ± 2 mmHg; Change in escape reaction threshold / analgesic effect, in words (SD Male rats [2]; 100 mg/kg): significant increase was seen at any measuring time after administration; also recorded: approximately comparative to the effect by morphine 5 mg/kg subcutaneous administration; Threshold (mmHg) (SD Male rats [2]; 100 mg/kg, 0.5 hr): 86 ± 2**^,$$ mmHg; Threshold (mmHg) (SD Male rats [2]; 100 mg/kg, 1 hr): 77 ± 2**^,$$ mmHg; Threshold (mmHg) (SD Male rats [2]; 100 mg/kg, 2 hr): 77 ± 2**^,$$ mmHg; Threshold (mmHg) (SD Male rats [2]; 100 mg/kg, 3 hr): 70 ± 3**^,$$ mmHg; Threshold (mmHg) (SD Male rats [2]; [5]): 47 ± 2 mmHg; Ki (μ-opioid receptor): 0.041 ± 0.003 nM; Selectivity δ/μ (μ-opioid receptor): 1300; IC50 (δ-opioid receptor): > 10 µM
2 | Cc1cc(O)cc(C)c1C[C@H](N)C(=O)NCCCCCCNC(=O)[C@@H](N)Cc1c(C)cc(O)cc1C [Ex.4, 1,6-Bis(Dmt-amino)hexane.2HCl] | 57 ± 4 mmHg | 54 ± 3 mmHg | 54 ± 5 mmHg | 53 ± 3 mmHg | 48 ± 2 mmHg | 54 ± 3 mmHg | 53 ± 3 mmHg | 57 ± 2 mmHg | 52 ± 2 mmHg | 49 ± 2 mmHg | tendency of a slight increase in the threshold was seen | 58 ± 3 mmHg | 58 ± 5 mmHg | 55 ± 5 mmHg | 53 ± 1 mmHg | 47 ± 2 mmHg | significant increase was seen 2 hours after administration; also recorded: exhibited the significant analgesic effect 2 hours after administration | 59 ± 3 mmHg | 56 ± 3 mmHg | 65 ± 5^$$ mmHg | Change in escape reaction threshold / analgesic effect, in words (SD Male rats [1]; all doses (1, 3, 10 mg/kg)): significant change in the threshold was not seen at any measuring time at any dose; also recorded: no analgesic effect was seen; Analgesic effect compared with compound of Ex.1, in words (SD Male rats [2]): weaker and has a shorter duration time than in compound of Ex.1; Threshold (mmHg) (SD Male rats [2]; 30 mg/kg, 3 hr): 59 ± 4 mmHg; Threshold (mmHg) (SD Male rats [2]; [4]): 47 ± 2 mmHg; Change in escape reaction threshold / analgesic effect, in words (SD Male rats [2]; 100 mg/kg): significant difference was seen in the measured values 30 minutes, 1 hour and 2 hours after administration; also recorded: significant analgesic effect was exhibited from 30 minutes after administration; Threshold (mmHg) (SD Male rats [2]; 100 mg/kg, 0.5 hr): 69 ± 6**^,$$ mmHg; Threshold (mmHg) (SD Male rats [2]; 100 mg/kg, 1 hr): 68 ± 3*^,$ mmHg; Threshold (mmHg) (SD Male rats [2]; 100 mg/kg, 2 hr): 75 ± 8**^,$$ mmHg; Threshold (mmHg) (SD Male rats [2]; 100 mg/kg, 3 hr): 58 ± 2 mmHg; Threshold (mmHg) (SD Male rats [2]; [5]): 48 ± 2 mmHg; Ki (μ-opioid receptor): 0.053 ± 0.01 nM; Selectivity δ/μ (μ-opioid receptor): 870; IC50 (δ-opioid receptor): > 10 µM
